Key:
Assay type in all cases: in vivo
[1] = tested on: Spodoptera frugiperda; test: Spodoptera frugiperda test; settings: 500 ppm active compound, cabbage leaves dipped
Protocol: (§1) [table] To produce a suitable preparation of active compound, 1 part by weight of active compound is mixed with the stated amounts of solvent and emulsifier, and the concentrate is diluted with emulsifier-containing water to the desired concentration. Cabbage leaves (Brassica oleracea) are treated by being dipped into the preparation of active compound of the desired concentration and are populated with caterpillars of the army worm (Spodoptera frugiperda) while leaves are still moist. After the desired period of time, the kill in % is determined. 100% means that all caterpillars have been killed; 0% means that none of the caterpillars have been killed.

[2] = tested on: Setaria; test: Pre-emergence test, Setaria; settings: pre-emergence/greenhouse; 250 g of ai/ha; after three weeks
Protocol: (§2) [table] To produce a suitable preparation of active compound, 1 part by weight of active compound is mixed with the stated amount of solvent, the stated amount of emulsifier is added and the concentrate is diluted with water to the desired concentration. Seeds of the test plants are sown in normal soil. After about 24 hours, the soil is sprayed with the preparation of active compound such that the particular amounts of active compound desired are applied per unit area. The concentration of the spray liquor is chosen such that the particular amounts of active compound desired are applied in 1000 l of water/ha. After three weeks, the degree of damage to the plants is rated in % damage in comparison to the development of the untreated control. The figures denote: • 0%=no effect (like untreated control) • 100%=total destruction

[3] = tested on: Tetranychus urticae; test: Tetranychus test (OP-resistant/dip treatment); settings: 100 ppm active compound, bean plants dipped, OP-resistant
Protocol: [table] To produce a suitable preparation of active compound, 1 part by weight of active compound is mixed with the stated amounts of solvent and emulsifier, and the concentrate is diluted with emulsifier-containing water to the desired concentration. Bean plants (Phaseolus vulgaris) which are heavily infested by all stages of the greenhouse […] spider mite (Tetranychus urticae) are dipped into a preparation of active compound of the desired concentration. After the desired period of time, the activity in % is determined. 100% means that all spider mites have been killed; 0% means that none of the spider mites have been killed.

[4] = tested on: Echinochloa; test: Pre-emergence test, Echinochloa; settings: pre-emergence/greenhouse; 250 g of ai/ha; after three weeks
Protocol: as §2

[5] = tested on: Sinapis; test: Post-emergence test, Sinapis; settings: post-emergence/greenhouse; 250 g of ai/ha; after three weeks
Protocol: as §2, with “Test plants” for “Seeds”, “a height of 5-15 cm” for “the test plants”, “are” for “are sown in normal soil. After about 24 hours, the soil is”, “(=like” for “(like”

[6] = tested on: Avena fatua; test: Pre-emergence test, Avena fatua; settings: pre-emergence/greenhouse; 250 g of ai/ha; after three weeks
Protocol: as §2

[7] = tested on: Setaria; test: Post-emergence test, Setaria; settings: post-emergence/greenhouse; 250 g of ai/ha; after three weeks
Protocol: as §2, with “Test plants” for “Seeds”, “a height of 5-15 cm” for “the test plants”, “are” for “are sown in normal soil. After about 24 hours, the soil is”, “(=like” for “(like”

[8] = tested on: Avena fatua; test: Post-emergence test, Avena fatua; settings: post-emergence/greenhouse; 250 g of ai/ha; after three weeks
Protocol: as §2, with “Test plants” for “Seeds”, “a height of 5-15 cm” for “the test plants”, “are” for “are sown in normal soil. After about 24 hours, the soil is”, “(=like” for “(like”

[9] = tested on: Echinochloa; test: Post-emergence test, Echinochloa; settings: post-emergence/greenhouse; 250 g of ai/ha; after three weeks
Protocol: as §2, with “Test plants” for “Seeds”, “a height of 5-15 cm” for “the test plants”, “are” for “are sown in normal soil. After about 24 hours, the soil is”, “(=like” for “(like”

[10] = tested on: Amaranthus; test: Pre-emergence test, Amaranthus; settings: pre-emergence/greenhouse; 250 g of ai/ha; after three weeks
Protocol: as §2

[11] = tested on: Alopecurus; test: Pre-emergence test, Alopecurus; settings: pre-emergence/greenhouse; 250 g of ai/ha; after three weeks
Protocol: as §2

[12] = tested on: Amaranthus; test: Post-emergence test, Amaranthus; settings: post-emergence/greenhouse; 250 g of ai/ha; after three weeks
Protocol: as §2, with “Test plants” for “Seeds”, “a height of 5-15 cm” for “the test plants”, “are” for “are sown in normal soil. After about 24 hours, the soil is”, “(=like” for “(like”

[13] = tested on: Sinapis; test: Pre-emergence test, Sinapis; settings: pre-emergence/greenhouse; 250 g of ai/ha; after three weeks
Protocol: as §2

[14] = tested on: Alopecurus; test: Post-emergence test, Alopecurus; settings: post-emergence/greenhouse; 250 g of ai/ha; after three weeks
Protocol: as §2, with “Test plants” for “Seeds”, “a height of 5-15 cm” for “the test plants”, “are” for “are sown in normal soil. After about 24 hours, the soil is”, “(=like” for “(like”

[15] = tested on: Phaedon cochleariae; test: Phaedon larvae test; settings: 500 ppm active compound, cabbage leaves dipped
Protocol: as §1, with “with larvae” for “with caterpillars”, “the mustard beetle (Phaedon cochleariae)” for “the army worm (Spodoptera frugiperda)”, “all beetle larvae” for “all caterpillars”, “the beetle larvae” for “the caterpillars”

[16] = tested on: Aphis gossypii; test: Aphis gossypii test (leaf dip, cotton); settings: 500 ppm active compound, cotton leaves dipped
Protocol: as §1, with “Cotton” for “Cabbage”, “(Gossypium hirsutum) which are heavily infested by the cotton aphids (Aphis gossypii)” for “(Brassica oleracea)”, “concentration.” for “concentration and are populated with caterpillars of the army worm (Spodoptera frugiperda) while leaves are still moist.”, “aphids” for “caterpillars”

[17] = tested on: Plutella xylostella; test: Plutella test; settings: 500 ppm active compound, cabbage leaves dipped
Protocol: as §1, with “diamondback moth (Plutella xylostella)” for “army worm (Spodoptera frugiperda)”

[18] = tested on: Myzus persicae; test: Test for persistency: Myzus persicae (root-systemic action); settings: 4 ppm in soil, broad beans
Protocol: (§3) [table] To produce a suitable preparation of active compound, 1 part by weight of active compound is mixed with the stated amounts of solvent and emulsifier, and the concentrate is diluted with water to the desired concentration. The preparation of active compound is mixed intimately with the soil. The stated concentration refers to the amount of active compound per volume unit of soil (mg/l). The treated soil is filled into pots, and into these pots is planted pre-germinated broad beans. In this way, the active compound can be taken up from the soil into the roots of the plants and be transported into the leaves. After the stated number of days, peach aphids (Myzus persicae) are, in infection chambers, placed on the leaves. After the desired period of time, the kill in % is determined. 100% means that all aphids have been killed; 0% means that none of the aphids have been killed.

[19] = tested on: Aphis gossypii; test: Test for persistency: Aphis gossypii (root-systemic action); settings: 4 ppm in soil, cotton
Protocol: as §3, with “cotton at the cotyledon stage.” for “pre-germinated broad beans.”, “cotton” for “peach”, “(Aphis gossypii)” for “(Myzus persicae)”

Compound	Kill rate in % after 7d [1]	Kill rate in % after 6d [16]	Kill rate in % after 7d [17]	Kill rate in % after 7d ([18]; infection after 7 d)	Kill rate in % after 7d ([18]; infection after 21 d)	Kill rate in % after 7d ([18]; infection after 35 d)	Kill rate in % after 7d ([19]; infection after 7 d)	Kill rate in % after 7d ([19]; infection after 21 d)	Kill rate in % after 7d ([19]; infection after 35 d)	also measured
COC1CCC2(CC1)NC(=O)C(Cl)(c1ccc(C)cc1Cl)C2=O (stereo not drawn) [Ex. I-1-a-3]	100%									
COC1CCC2(CC1)NC(=O)C(Cl)(c1c(C)cc(C)cc1Cl)C2=O (stereo not drawn) [Ex. I-1-a-8]	100%									% damage, Setaria [2]: 100%; Kill rate in % after 7d [3]: 100%; % damage, Echinochloa [4]: 100%; % damage, Sinapis [5]: 80%; % damage, Avena fatua [6]: 100%; % damage, Setaria [7]: 100%; % damage, Avena fatua [8]: 90%; % damage, Echinochloa [9]: 100%; % damage, Amaranthus [10]: 100%; % damage, Alopecurus [11]: 100%; % damage, Amaranthus [12]: 90%; % damage, Sinapis [13]: 100%; % damage, Alopecurus [14]: 100%
COC1CCC2(CC1)NC(=O)C(Cl)(c1cc(C)ccc1Br)C2=O (stereo not drawn) [Ex. I-1-a-28]		90%	100%							Kill rate in % after 7d [15]: 100%
Cc1cc(Br)cc(Cl)c1C1(Cl)C(=O)NC2(CCOCC2)C1=O (stereo not drawn) [Ex. I-1-c-2]			100%	100%	100%	99%	100%	98^ %	98^ %	
Cc1cc(Br)cc(C)c1C1(Cl)C(=O)NC2(CCOCC2)C1=O (stereo not drawn) [Ex. I-1-c-3]		90%	100%	99%	100%	99%	100%	98^ %	98^ %	
